Entries after “also recorded” stand apart in the source; their conditions may differ.
Assays:
[1] = Drug release from rubber bands in physiological medium; assay type: physicochemical; conditions: pH 7.9, 37 degrees Celsius; for Drug release from rubber band: released drug measured over time
Method: To see whether the lidocaine loaded within the rubber is dispersed evenly, a larger lidocaine loaded rubber slab was prepared and cut into pieces from either the middle or the edges of the slab. The amount of drug released was measured (see FIG. 9K) and normalized to the amount of rubber (see FIG. 9L).

HL-1 cardiomyocytes = assay: Calcium imaging of HL-1 cardiomyocytes exposed to lidocaine released from rubber bands; assay type: cell-based; conditions: HL-1 cardiomyocytes before and after exposure to released lidocaine
Method: In accordance with various potential embodiments, and with reference to FIGS. 11A-11C, the released lidocaine was tested on cardiomyocytes. Lidocaine is known to have a cardiotoxic effect in high concentrations, and accordingly, HL-1 cardiomyocytes beating on a plate were imaged using calcium imaging before and after exposure to the released lidocaine (FIG. 11A).

MCF-7 cells = assay: Activity of salicylic acid released from rubber on MCF-7 cell viability; assay type: cell-based; conditions: drug loaded in rubber and released into the media in presence of MCF-7 cells
Description: In order to verify that the released drugs are still active after elution from the rubber, salicylic acid was loaded and released into the media in the presence of MCF-7 cells.

Row | SMILES | Drug release from rubber band [1] | other results
1 | CCCCN1CCCCC1C(=O)Nc1c(C)cccc1C (centres unmarked) [bupivacaine] | released | 
2 | Cc1cc(C2CCCCC2)n(O)c(=O)c1 [ciclopirox olamine] | released | 
3 | CN(C)CCOC(c1ccccc1)c1ccccc1.Cn1c(=O)c2[nH]c(Cl)nc2n(C)c1=O [dimenhydrinate] | released | 
4 | COC1=CC(=O)C[C@@H](C)[C@]12Oc1c(Cl)c(OC)cc(OC)c1C2=O [griseofulvin] | released | 
5 | CCN(CC)CC(=O)Nc1c(C)cccc1C [lidocaine] |  | Time at which release peaked ([1]; different loading quantities): ~5 days; Calcium activity (calcium waves, fluorescence pattern) (HL-1 cardiomyocytes): inhibit spontaneous calcium waves; also recorded: much lower level of calcium activity; Rate of contraction (HL-1 cardiomyocytes): rate of contraction dropped
6 | CN1C(C(=O)Nc2ccccn2)=C(O)c2ccccc2S1(=O)=O [piroxicam] | released | 
7 | O=C(O)c1ccccc1O [salicylic acid] | released | Cell viability compared to untreated cells (MCF-7 cells): effective in reducing cell viability
8 | OB1OCc2cc(F)ccc21 [tavabarole] | released | 
